Like-named read-outs stand apart in the source and are kept apart here.
Test system: adults with previously untreated higher-risk MDS
Conditions: with azacitidine
Protocol: A multicenter, non-randomized Phase 1b study in adults with previously untreated higher-risk MDS, defined as IPSS risk categories of Int-2 or High (IPSS overall score ≥1.5) was initiated. The original protocol randomized patients into 1 of 3 treatment groups: venetoclax 800 mg + azacitidine, venetoclax 400 mg + azacitidine, and azacitidine monotherapy. Under the original protocol, venetoclax was administered on Days 1 through 28 of each 28-day-cycle and dosing was initiated according to a ramp-up dosing schedule in Cycle 1.
Subjects 18 years or older diagnosed with treatment-naïve IPSS intermediate-2 or high-risk myelodysplastic syndromes with ECOG ≤2 were enrolled. For this study, inclusion criteria included the following: • 1. Subject must be ≥18 years of age. • 2. Subject must have documented diagnosis of previously untreated de novo MDS with: • a. International Prognostic Scoring System (IPSS) risk categories Intermediate-2 or High (i.e., minimum IPSS score of 1.5) OR Revised IPSS (IPSS-R) categories Intermediate, High or Very High (score of >3); and • b. Presence of <20% bone marrow blasts per bone marrow biopsy/aspirate. • 3. Subject must have an Eastern Cooperative Oncology Group (ECOG) performance score of ≤2.
Azacitidine 75 mg/m^2 (intravenous or subcutaneous daily) was administered for 7 days and venetoclax was administered at 400 mg for 14 days in each 28 day cycle. In both cohorts, dose modification during Cycle 1 was not recommended. Dose modifications in subsequent cycles were prescribed for adverse events. […] In subsequent cycles, venetoclax duration could be shortened to 9 days of each cycle. In Safety Expansion Cohort 2 (SE2), dose modification guidelines recommended stepwise reductions, first in azacitidine dose (first to 50 mg/m^2, then 36 mg/m^2) and subsequently in venetoclax duration to 7 days of each cycle (venetoclax 400 mg) as shown in Table 4. The impact of each dose modification strategy on safety and efficacy in SE1 versus SE2 was compared. Worsening of treatment-emergent adverse events grades from baseline was analyzed by cycle. Responses were evaluated using IWG 2006 criteria. Analyses included all subject who received ≥1 dose of study drug.
After a previous interruption of treatment, delay starting the next cycle, onset of adverse events associated with hematological toxicity, significant reduction of neutrophils, or significant reduction of platelets, a treatment dose reduction may be indicated. […] Venetoclax and azacitidine were resumed on the same day after any delays or interruptions in treatment.

Venetoclax dose delay by end of each cycle (Cycle 2, SE1, n = 22): 14 (63) n (%)
Venetoclax dose delay by end of each cycle, Median # days (range) (Cycle 2, SE1, n = 22): 7.5 (1-21) days
Venetoclax dose delay by end of each cycle (Cycle 2, SE2, n = 21): 13 (62) n (%)
Venetoclax dose delay by end of each cycle, Median # days (range) (Cycle 2, SE2, n = 21): 8 (5-21) days
Venetoclax dose delay by end of each cycle (Cycle 3, SE1, n = 22): 12 (55) n (%)
Venetoclax dose delay by end of each cycle, Median # days (range) (Cycle 3, SE1, n = 22): 14 (3-28) days
Venetoclax dose delay by end of each cycle (Cycle 3, SE2, n = 21): 10 (48) n (%)
Venetoclax dose delay by end of each cycle, Median # days (range) (Cycle 3, SE2, n = 21): 8.5 (1-48) days
Venetoclax dose delay by end of each cycle (Cycle 4, SE1, n = 22): 8 (36) n (%)
Venetoclax dose delay by end of each cycle, Median # days (range) (Cycle 4, SE1, n = 22): 17 (1-54) days
Venetoclax dose delay by end of each cycle (Cycle 4, SE2, n = 21): 6 (28) n (%)
Venetoclax dose delay by end of each cycle, Median # days (range) (Cycle 4, SE2, n = 21): 9 (6-43) days
Venetoclax dose delay by end of each cycle (Cycle 5, SE1, n = 22): 7 (32) n (%)
Venetoclax dose delay by end of each cycle, Median # days (range) (Cycle 5, SE1, n = 22): 14 (3-28) days
Venetoclax dose delay by end of each cycle (Cycle 5, SE2, n = 21): 9 (43) n (%)
Venetoclax dose delay by end of each cycle, Median # days (range) (Cycle 5, SE2, n = 21): 14 (1-97) days
Venetoclax dose delay by end of each cycle (Cycle 6, SE1, n = 22): 7 (32) n (%)
Venetoclax dose delay by end of each cycle, Median # days (range) (Cycle 6, SE1, n = 22): 7 (1-21) days
Venetoclax dose delay by end of each cycle (Cycle 6, SE2, n = 21): 5 (24) n (%)
Venetoclax dose delay by end of each cycle, Median # days (range) (Cycle 6, SE2, n = 21): 14 (6-91) days
Patients with ≥1 Ven dose amount reduction (SE1, n = 22): 10 (45) n (%)
Venetoclax: Median days to duration reduction (SE1, n = 22): 52 days
Patients with ≥1 Ven dose amount reduction (SE2, n = 21): 10 (48) n (%)
Compound: CC1(C)CCC(CN2CCN(c3ccc(C(=O)NS(=O)(=O)c4ccc(NCC5CCOCC5)c([N+](=O)[O-])c4)c(Oc4cnc5[nH]ccc5c4)c3)CC2)=C(c2ccc(Cl)cc2)C1 [Venetoclax, 4-(4-{[2-(4-chlorophenyl)-4,4-dimethylcyclohex-1-en-1-yl]methyl}piperazin-1-yl)-N-({3nitro-4-[(tetrahydro-2H-pyran-4-ylmethyl)amino]phenyl}sulfonyl)-2-(1H-pyrrolo[2,3-b]pyridin5-yloxy)benzamide]
# of reductions in Venetoclax duration (due to hematologic toxicity) (SE1, n = 22): 3 (14)
# of reductions in Venetoclax duration (due to hematologic toxicity) (SE2, n = 21): 0

From patent US20220370481A1, “VENETOCLAX DOSING REGIMENS FOR USE IN TREATING MYELODYSPLASTIC SYNDROMES IN COMBINATION WITH A CYP3A INHIBITOR AND AZACITIDINE” (priority 2021, published 2022)
